Measured values from patent US20210163964A1, “ENGINEERED STREPTOMYCES ALBUS STRAINS” (University of Florida Research Foundation, Incorporated, priority 2018, published 2021).

System: S. albus J1074 and the Δpfk-derivative strain
Assay: Diamide sensitivity disc assay
Assay type: cell-based, Streptomyces albus J1074
Conditions: 100 mM diamide disc; ΔpfkSA mutant relative to wild type S. albus J1074; R5A plates, 30° C., 24 h
Experimental: Lawns of S. albus J1074 wild-type and Δpfk mutant were generated by overlaying R5A plates (sucrose 100 g/l, K2SO4 0.25 g/l, MgCl2 10.12 g/l, glucose 10 g/l, Casamino acids 0.1 g/l, yeast extract 5 g/l, MOPS 21 g/l, NAOH 2 g/l, R2YE trace elements 2 ml/l, 15 g/L agar) with 3 ml soft Nutrient Agar containing 10^7 fresh spores. Immediately after plating, paper discs soaked in 100 mM diamide were added and plates were incubated at 30° C. for 24 h.

CN(C)C(=O)/N=N/C(=O)N(C)C [diamide]
sensitivity to diamide (halo around disc): less sensitive
